Experimental data as given in patent publication US20260274892A1, “MACROCYCLIC BROAD SPECTRUM ANTIBIOTICS” (RQx Pharmaceuticals, Inc., priority 2017, published 2026).

Tested on: Escherichia coli ATCC 25922
Assay: Minimum inhibitory concentration (MIC), CLSI broth micro-dilution, E. coli
Format: cell-based
Settings: Escherichia coli
In short: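 Antibacterial potency is measured as MIC by the CLSI broth dilution method. Bacteria at OD600 0.0005 in Tween-80-supplemented cation-adjusted Mueller Hinton broth face ten twofold compound dilutions for 22 h at 35° C.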

[1] = ATCC25922, 22 h, Table 7, cation adjusted Mueller Hinton Broth + 0.002% Tween-80, 35° C.
[2] = ATCC25922, Table 7, cation adjusted Mueller Hinton Broth + 0.002% Tween-80, 35° C., 22 hours
[3] = ATCC25922, 22 h, Table 6, cation adjusted Mueller Hinton Broth + 0.002% Tween-80, 35° C.

Q: For Cc1nc(-c2ccc(C(C)(C)C)cc2)ncc1C(=O)N[C@@H](CCN)C(=O)N(C)[C@@H]1C(=O)N[C@@H](C)C(=O)N[C@H](C(=O)NCC#N)Cc2ccc(OCCCN)c(c2)-c2cc1ccc2OCCCN (racemic) [Compound 433, rac-(8S,11S,14S)-3,18-bis(3-aminopropoxy)-N-(cyanomethyl)-11-methyl-14-[methyl-[rac-(2S)-4-amino-2-[[2-(4-tert-butylphenyl)-4-methyl-pyrimidine-5-carbonyl]amino]butanoyl]amino]-10,13-dioxo-9,12-diazatricyclo[13.3.1.12,6]icosa-1(18),2(20),3,5,15(19),16-hexaene-8-carboxamide], which MIC (ATCC25922, Table 6, cation adjusted Mueller Hinton Broth + 0.002% Tween-80, 35° C., 22 hours) is on record?
A: 0.096 µM

Q: How did the MIC [1] turn out when Cc1nc(-c2ccc(C(C)(C)C)cc2)nc(C)c1C(=O)N[C@@H](CCN)C(=O)N(C)[C@@H]1C(=O)N[C@@H](C)C(=O)N[C@H](C(=O)NCC#N)Cc2ccc(O)c(c2)-c2cc1ccc2OCC(CN)CN (racemic) [Compound 611, rac-(8S,11S,14S)-18-[3-amino-2-(aminomethyl)propoxy]-N-(cyanomethyl)-3-hydroxy-11-methyl-14-[methyl-[rac-(2S)-4-amino-2-[[2-(4-tert-butylphenyl)-4,6-dimethyl-pyrimidine-5-carbonyl]amino]butanoyl]amino]-10,13-dioxo-9,12-diazatricyclo[13.3.1.12,6]icosa-1(18),2(20),3,5,15(19),16-hexaene-8-carboxamide] was run?
A: 0.19 µM

Q: Which MIC [1] does the source give for Cc1nc(-c2ccc(C(C)(C)C)cc2)nc(C)c1C(=O)N[C@@H](CCN)C(=O)N(C)[C@@H]1C(=O)N[C@@H](C)C(=O)N[C@H](C(=O)NCC#N)Cc2ccc(OCCN)c(c2)-c2cc1ccc2CN (racemic) [Compound 634, rac-(8S,11S,14S)-3-(2-aminoethoxy)-18-(aminomethyl)-N-(cyanomethyl)-11-methyl-14-[methyl-[rac-(2S)-4-amino-2-[[2-(4-tert-butylphenyl)-4,6-dimethyl-pyrimidine-5-carbonyl]amino]butanoyl]amino]-10,13-dioxo-9,12-diazatricyclo[13.3.1.12,6]icosa-1(18),2,4,6(20),15(19),16-hexaene-8-carboxamide] here?
A: 0.25 µM

Q: For Cc1nc(-c2ccc(OC3CCCCC3)cc2)nc(C)c1C(=O)N[C@@H](CCN)C(=O)N(C)[C@@H]1C(=O)N[C@@H](C)C(=O)N[C@H](C(=O)NCC#N)Cc2ccc(OC[C@H](O)CN)c(c2)-c2cc1ccc2OC[C@H](O)CN (racemic) [Compound 568, rac-(8S,11S,14S)-N-(cyanomethyl)-11-methyl-14-[methyl-[rac-(2S)-4-amino-2-[[2-[4-(cyclohexoxy)phenyl]-4,6-dimethyl-pyrimidine-5-carbonyl]amino]butanoyl]amino]-10,13-dioxo-3,18-bis[rac-(2R)-3-amino-2-hydroxy-propoxy]-9,12-diazatricyclo[13.3.1.12,6]icosa-1(18),2(20),3,5,15(19),16-hexaene-8-carboxamide], which MIC [1] is on record?
A: 0.063 µM

Q: With Cc1nc(-c2ccc(C(C)(C)C)cc2)nc(C)c1C(=O)N[C@@H](CNS(N)(=O)=O)C(=O)N(C)[C@@H]1C(=O)N[C@@H](C)C(=O)N[C@H](C(=O)NCC#N)Cc2cc(c(O)cc2OCCN)-c2cc1ccc2OCCN (racemic) [Compound 628, rac-(8S,11S,14S)-5,18-bis(2-aminoethoxy)-N-(cyanomethyl)-3-hydroxy-11-methyl-14-[methyl-[rac-(2S)-2-[[2-(4-tert-butylphenyl)-4,6-dimethyl-pyrimidine-5-carbonyl]amino]-3-(sulfamoylamino)propanoyl]amino]-10,13-dioxo-9,12-diazatricyclo[13.3.1.12,6]icosa-1(18),2(20),3,5,15(19),16-hexaene-8-carboxamide] as the compound, how does the MIC [2] read?
A: 0.44 µM

Q: Which MIC [3] does the source give for Cc1nc(-c2ccc(C3CCCCC3)cc2)nc(C)c1C(=O)N[C@@H](CCN)C(=O)N(C)[C@@H]1C(=O)N[C@@H](C)C(=O)N[C@H](C(=O)NCC#N)Cc2ccc(OCCN)c(c2)-c2cc1ccc2OCCN (racemic) [Compound 304, rac-(8S,11S,14S)-3,18-bis(2-aminoethoxy)-N-(cyanomethyl)-11-methyl-14-[methyl-[rac-(2S)-4-amino-2-[[2-(4-cyclohexylphenyl)-4,6-dimethyl-pyrimidine-5-carbonyl]amino]butanoyl]amino]-10,13-dioxo-9,12-diazatricyclo[13.3.1.12,6]icosa-1(18),2(20),3,5,15(19),16-hexaene-8-carboxamide] here?
A: 0.13 µM

Q: How did the MIC [1] turn out when Cc1nc(-c2ccc(OC(C)C)cc2)nc(C)c1C(=O)N[C@@H](CNS(N)(=O)=O)C(=O)N(C)[C@@H]1C(=O)N[C@@H](C)C(=O)N[C@H](C(=O)NCC#N)Cc2ccc(OC[C@H](O)CN)c(c2)-c2cc1ccc2OC[C@H](O)CN (racemic) [Compound 579, rac-(8S,11S,14S)-N-(cyanomethyl)-11-methyl-14-[methyl-[rac-(2S)-2-[[2-(4-isopropoxyphenyl)-4,6-dimethyl-pyrimidine-5-carbonyl]amino]-3-(sulfamoylamino)propanoyl]amino]-10,13-dioxo-3,18-bis[rac-(2R)-3-amino-2-hydroxy-propoxy]-9,12-diazatricyclo[13.3.1.12,6]icosa-1(18),2(20),3,5,15(19),16-hexaene-8-carboxamide] was run?
A: 0.75 µM

Q: For Cc1nc(-c2ccc(C(C)(C)C)cc2)nc(C)c1C(=O)N[C@@H](CCN)C(=O)N(C)[C@@H]1C(=O)N[C@@H](C)C(=O)N[C@H](C(=O)NCC#N)Cc2cc(NC(N)=O)c(OCCN)c(c2)-c2cc1ccc2OCCN (racemic) [Compound 619, rac-(8S,11S,14S)-3,18-bis(2-aminoethoxy)-N-(cyanomethyl)-11-methyl-14-[methyl-[rac-(2S)-4-amino-2-[[2-(4-tert-butylphenyl)-4,6-dimethyl-pyrimidine-5-carbonyl]amino]butanoyl]amino]-10,13-dioxo-4-ureido-9,12-diazatricyclo[13.3.1.12,6]icosa-1(18),2(20),3,5,15(19),16-hexaene-8-carboxamide], which MIC [2] is on record?
A: 0.13 µM

Q: Cc1nc(-c2ccc(C(C)(C)C)cc2)ncc1C(=O)N[C@@H](CCN)C(=O)N(C)[C@@H]1C(=O)N[C@@H](C)C(=O)N[C@H](C(=O)O)Cc2ccc(OCCN)c(c2)-c2cc1ccc2OCCN (racemic) [Compound 640, rac-(8S,11S,14S)-3,18-bis(2-aminoethoxy)-11-methyl-14-[methyl-[rac-(2S)-4-amino-2-[[2-(4-tert-butylphenyl)-4-methyl-pyrimidine-5-carbonyl]amino]butanoyl]amino]-10,13-dioxo-9,12-diazatricyclo [13.3.1.12,6]icosa-1(18),2(20),3,5,15(19), 16-hexaene-8-carboxylic acid] was tested. Which MIC (ATCC25922, 22 h, Table 8, cation adjusted Mueller Hinton Broth + 0.002% Tween-80, 35° C.) did it give?
A: 0.25 µM

Q: With Cc1nc(-c2ccc(C(C)(C)C)cc2)nc(C)c1C(=O)N[C@@H](CNS(N)(=O)=O)C(=O)N(C)[C@@H]1C(=O)N[C@@H](C)C(=O)N[C@H](C(=O)NCC#N)Cc2ccc(OC[C@H](O)CN)c(c2)-c2cc1cc(OC[C@H](O)CN)c2O (racemic) [Compound 582, rac-(8S,11S,14S)-N-(cyanomethyl)-18-hydroxy-11-methyl-14-[methyl-[rac-(2S)-2-[[2-(4-tert-butylphenyl)-4,6-dimethyl-pyrimidine-5-carbonyl]amino]-3-(sulfamoylamino)propanoyl]amino]-10,13-dioxo-3,17-bis[rac-(2R)-3-amino-2-hydroxy-propoxy]-9,12-diazatricyclo[13.3.1.12,6]icosa-1(18),2(20),3,5,15(19),16-hexaene-8-carboxamide] as the compound, how does the MIC [2] read?
A: 0.75 µM

Q: Which MIC [3] does the source give for CCCCc1ccc(-c2cc(N)c(C(=O)N[C@@H](CCN)C(=O)N(C)[C@@H]3C(=O)N[C@@H](C)C(=O)N[C@H](C(=O)NCC#N)Cc4ccc(OCCN)c(c4)-c4cc3ccc4OCCN)c(C)n2)nc1 (racemic) [Compound 529, rac-(8S,11S,14S)-3,18-bis(2-aminoethoxy)-N-(cyanomethyl)-11-methyl-14-[methyl-[rac-(2S)-4-amino-2-[[4-amino-6-(5-butyl-2-pyridyl)-2-methyl-pyridine-3-carbonyl]amino]butanoyl]amino]-10,13-dioxo-9,12-diazatricyclo[13.3.1.12,6]icosa-1(18),2(20),3,5,15(19),16-hexaene-8-carboxamide] here?
A: 4 µM

Q: With COc1c(OCCN)cc2cc1-c1cc(cc(OCCN)c1OC)[C@H](N(C)C(=O)[C@H](CCN)NC(=O)c1c(C)nc(-c3ccc(C(C)(C)C)cc3)nc1C)C(=O)N[C@@H](C)C(=O)N[C@H](C(=O)NCC#N)C2 (racemic) [Compound 592, rac-(8S,11S,14S)-4,17-bis(2-aminoethoxy)-N-(cyanomethyl)-3,18-dimethoxy-11-methyl-14-[methyl-[rac-(2S)-4-amino-2-[[2-(4-tert-butylphenyl)-4,6-dimethyl-pyrimidine-5-carbonyl]amino]butanoyl]amino]-10,13-dioxo-9,12-diazatricyclo[13.3.1.12,6]icosa-1(18),2(20),3,5,15(19),16-hexaene-8-carboxamide] as the compound, how does the MIC [1] read?
A: 0.19 µM

Q: COc1c(OC[C@H](O)CN)cc2cc1-c1cc(ccc1OC[C@H](O)CN)C[C@@H](C(=O)NCC#N)NC(=O)[C@H](C)NC(=O)[C@H]2N(C)C(=O)[C@H](CCN)NC(=O)c1c(C)nc(-c2ccc(C(C)(C)C)cc2)nc1C (racemic) [Compound 586, rac-(8S,11S,14S)-N-(cyanomethyl)-18-methoxy-11-methyl-14-[methyl-[rac-(2S)-4-amino-2-[[2-(4-tert-butylphenyl)-4,6-dimethyl-pyrimidine-5-carbonyl]amino]butanoyl]amino]-10,13-dioxo-3,17-bis[rac-(2R)-3-amino-2-hydroxy-propoxy]-9,12-diazatricyclo[13.3.1.12,6]icosa-1(18),2(20),3,5,15(19),16-hexaene-8-carboxamide] was tested. Which MIC [1] did it give?
A: 0.19 µM
